The values below come from ChEMBL document CHEMBL2086319, “From the first selective non-peptide AT(2) receptor agonist to structurally related antagonists” (J Med Chem, 2012).

A short description of assay [1]: Displacement of [125I]Ang 2 from rat liver membrane AT1 receptor after 2 hrs by micro-counter.
A short description of assay [2]: Displacement of [125I]Ang 2 from pig uterus membrane AT2 receptor after 1.5 hrs by micro-counter. Further details: species or system Sus scrofa.
Assay [3] deals with NG108-15. Kind of assay: Inhibition of Ang 2-induced neurite outgrowth in mouse/rat NG108-15 cells at 10 nM after 3 days by phase contrast microscopy. The format is functional, cell-based.
The subject of assay [4] is NG108-15. As to the kind of experiment: Induction of neurite outgrowth in mouse/rat NG108-15 cells at 10 nM after 3 days by phase contrast microscopy in presence of PD123,319. It counts as functional, cell-based.
Assay [5] deals with NG108-15. As to the kind of experiment: Induction of neurite outgrowth in mouse/rat NG108-15 cells at 10 nM after 3 days by phase contrast microscopy. The format is functional, cell-based.
The subject of assay [6] is NG108-15. As to the kind of experiment: Induction of neurite outgrowth in mouse/rat NG108-15 cells at 1 nM after 3 days by phase contrast microscopy in presence of PD123,319. The format is functional, cell-based.
Assay [7] has as its system NG108-15. Kind of assay: Effect on neurite outgrowth in mouse/rat NG108-15 cells assessed as morphological changes at 10 uM after 3 days by phase contrast microscopy. The format is functional, cell-based.

Structures are written as SMILES. The source made the active and inactive calls. The rule behind the calls is not given here.

With `CCCCOC(=O)NS(=O)(=O)c1sc(CC(C)C)cc1-c1cccc(CN(C)C=O)c1`, the Ki was more than 10000 nM in assay [1] and 55 nM in assay [2].

As to `CCCCOC(=O)NS(=O)(=O)c1sc(CC(C)C)cc1-c1cccc(CN2CCCC2=O)c1`, the inhibition constant (Ki) in assay [1] is more than 10000 nM; in assay [2], 224 nM.

Turning to `CCCCOC(=O)NS(=O)(=O)c1sc(CC(C)C)cc1-c1cccc(Cn2ccnc2Cl)c1`, the values for the Ki in assay [1] and in assay [2] were more than 10000 nM and 9.2 nM, respectively. In addition, the inhibition result in assay [3] is “Active”. Besides, in assay [4], the result was Active. Further, the outcome in assay [5] was inactive.

Regarding `CCCCOC(=O)NS(=O)(=O)c1sc(CC(C)C)cc1-c1cccc(Cn2ccnc2CC)c1`, the Ki was more than 10000 nM in assay [1] and 8 nM in assay [2].

Regarding `CCCCOC(=O)NS(=O)(=O)c1sc(CC(C)C)cc1-c1cccc(C(=O)Cn2cnc3ccccc32)c1`, the Ki in assay [1] was more than 10000 nM; in assay [2] it was 20 nM. In assay [3], the inhibition result was “Active”. In addition, in assay [4], the outcome was Active. In assay [5], the outcome was inactive.

For `CCCCOC(=O)NS(=O)(=O)c1sc(CC(C)C)cc1-c1cccc(Cn2ccnc2C(C)=O)c1`, the figures for the inhibitory constant (Ki) in assay [1] and in assay [2] were more than 10000 nM and 17 nM, respectively.

Regarding `CCCCOC(=O)NS(=O)(=O)c1sc(CC(C)C)cc1-c1cccc(CN(Cc2ccccc2)C(=O)CCCC)c1`, the results for the inhibition constant (Ki) in assay [1] and in assay [2] were more than 10000 nM and 35 nM, respectively.

As to `CCCCOC(=O)NS(=O)(=O)c1sc(CC(C)C)cc1-c1cccc(CN(Cc2ccccc2)C(C)=O)c1`, the Ki in assay [1] was more than 10000 nM; in assay [2], 79 nM.

In the case of `CCCCOC(=O)NS(=O)(=O)c1sc(CC(C)C)cc1-c1cccc(Cn2cnc3cccnc32)c1`, the inhibition constant Ki was more than 10000 nM in assay [1] and 66 nM in assay [2].

`CCCCOC(=O)NS(=O)(=O)c1sc(CC(C)C)cc1-c1cccc(CN(CC)C(=O)c2cccs2)c1`: the Ki in assay [1] is more than 10000 nM; in assay [2], 2.2 nM.

With `CCCCOC(=O)NS(=O)(=O)c1sc(CC(C)C)cc1-c1cccc(CN(Cc2cccnc2)C(=O)c2ccccc2)c1`, the Ki in assay [1] is more than 10000 nM; in assay [2], 47 nM. Also, the inhibition result in assay [3] was “Active”.

For the compound `CCCCOC(=O)NS(=O)(=O)c1sc(CC(C)C)cc1-c1cccc(CN(CC(F)(F)F)C(C)=O)c1`, the Ki is more than 10000 nM in assay [1] and 72 nM in assay [2].

`CCCCOC(=O)NS(=O)(=O)c1sc(CC(C)C)cc1-c1cccc(Cn2ccnc2C)c1`: the figures for the Ki in assay [1] and in assay [2] were more than 10000 nM and 29 nM, respectively.

Regarding `CCCCOC(=O)NS(=O)(=O)c1sc(CC(C)C)cc1-c1cccc(Cn2ccc(C(F)(F)F)n2)c1`, the Ki is more than 10000 nM in assay [1] and 233 nM in assay [2].

`CCCCOC(=O)NS(=O)(=O)c1sc(CC(C)C)cc1-c1cccc(CN2C(=O)CCC2=O)c1`: the figures for the Ki in assay [1] and in assay [2] were more than 10000 nM and 147 nM, respectively.

As to `CCCCOC(=O)NS(=O)(=O)c1sc(CC(C)C)cc1-c1cccc(CN(C)C(C)=O)c1`, the Ki in assay [1] was more than 10000 nM; in assay [2] it was 29 nM.

In the case of `CCCCOC(=O)NS(=O)(=O)c1sc(CC(C)C)cc1-c1cccc(CN(C)C(=O)C(=O)OCC)c1`, the values for the Ki in assay [1] and in assay [2] were more than 10000 nM and 1.6 nM, respectively. For the same compound, the outcome in assay [6] was Active.

In the case of `CCCCOC(=O)NS(=O)(=O)c1sc(CC(C)C)cc1-c1cccc(CN(Cc2ccccc2)C(=O)c2cccs2)c1`, the figures for the Ki in assay [1] and in assay [2] were more than 10000 nM and 670 nM, respectively.

Consider `CCCCOC(=O)NS(=O)(=O)c1sc(CC(C)C)cc1-c1cccc(CN(CC(F)(F)F)C(=O)C2CC2)c1`, for which the Ki in assay [1] is more than 10000 nM; in assay [2], 163 nM.

As for `CCCCOC(=O)NS(=O)(=O)c1sc(CC(C)C)cc1-c1cccc(Cn2ccnc2-c2ccccc2)c1`, the Ki was more than 10000 nM in assay [1] and 67 nM in assay [2].

As to `CCCCOC(=O)NS(=O)(=O)c1sc(CC(C)C)cc1-c1cccc(CN(Cc2cccnc2)C(C)=O)c1`, the Ki in assay [1] is more than 10000 nM; in assay [2], 83 nM.

For `CCCCOC(=O)NS(=O)(=O)c1sc(CC(C)C)cc1-c1cccc(Cn2cccn2)c1`, the values for the Ki in assay [1] and in assay [2] were more than 10000 nM and 110 nM, respectively.

With `CCCCOC(=O)NS(=O)(=O)c1sc(CC(C)C)cc1-c1cccc(Cn2ccnc2-c2ccccn2)c1`, the Ki was more than 10000 nM in assay [1] and 28 nM in assay [2].

For `CCCCOC(=O)NS(=O)(=O)c1sc(CC(C)C)cc1-c1cccc(Cn2ccnc2CCCC)c1`, the values for the Ki in assay [1] and in assay [2] were more than 10000 nM and 10 nM, respectively.

`CCCCOC(=O)NS(=O)(=O)c1sc(CC(C)C)cc1-c1cccc(CN(C)C(=O)c2cccs2)c1`: the Ki in assay [1] was more than 10000 nM; in assay [2] it was 13 nM.

Turning to `CCCCOC(=O)NS(=O)(=O)c1sc(CC(C)C)cc1-c1cccc(Cn2cnc3ncccc32)c1`, the Ki in assay [1] was more than 10000 nM; in assay [2], 44 nM.

Consider `CCCCOC(=O)NS(=O)(=O)c1sc(CC(C)C)cc1-c1cccc(Cn2cnc3ccccc32)c1`, for which the Ki in assay [1] was more than 10000 nM; in assay [2], 32 nM.

As to `CCCCOC(=O)NS(=O)(=O)c1sc(CC(C)C)cc1-c1cccc(CN(CC)C(C)=O)c1`, the Ki is more than 10000 nM in assay [1] and 29 nM in assay [2].

In the case of `CCCCOC(=O)NS(=O)(=O)c1sc(CC(C)C)cc1-c1cccc(CCn2ccnc2)c1`, the Ki in assay [1] is more than 10000 nM; in assay [2], 118 nM.

Turning to `CCCCOC(=O)NS(=O)(=O)c1sc(CC(C)C)cc1-c1cccc(CN(CC)S(=O)(=O)c2cccs2)c1`, the Ki in assay [1] was more than 10000 nM; in assay [2] it was 133 nM.

Consider `CCCCOC(=O)NS(=O)(=O)c1sc(CC(C)C)cc1-c1cccc(CN2C(=O)CN(C)C2=O)c1`, for which the Ki is more than 10000 nM in assay [1] and 37 nM in assay [2].

In the case of `CCCCOC(=O)NS(=O)(=O)c1sc(CC(C)C)cc1-c1cccc(CN(C)C(=O)OCC)c1`, the figures for the inhibitory constant (Ki) in assay [1] and in assay [2] were more than 10000 nM and 45 nM, respectively.

Consider `CCCCOC(=O)NS(=O)(=O)c1sc(CC(C)C)cc1-c1cccc(CN(C(=O)c2ccccc2)c2ccc(C)cc2)c1`, for which the inhibitory constant (Ki) in assay [1] is more than 10000 nM; in assay [2], 46 nM.

With `Cc1cc(Cn2cnc3c2C[C@@H](C(=O)O)N(C(=O)C(c2ccccc2)c2ccccc2)C3)ccc1N(C)C`, the result in assay [7] was inactive.

Take `CCCCOC(=O)NS(=O)(=O)c1sc(CC(C)C)cc1-c1cccc(CN(C)S(C)(=O)=O)c1`: the Ki in assay [1] and in assay [2] was more than 10000 nM throughout.

As to `CCCCOC(=O)NS(=O)(=O)c1sc(CC(C)C)cc1-c1cccc(CN(C(C)=O)c2ccc(C)cc2)c1`, the values for the Ki in assay [1] and in assay [2] were more than 10000 nM and 120 nM, respectively.

For `CCCCOC(=O)NS(=O)(=O)c1sc(CC(C)C)cc1-c1cccc(Cn2ccnc2-c2cccs2)c1`, the values for the Ki in assay [1] and in assay [2] were more than 10000 nM and 28 nM, respectively.

With `CCCCOC(=O)NS(=O)(=O)c1sc(CC(C)C)cc1-c1cccc(CN(C)C(=O)CCCC)c1`, the Ki was more than 10000 nM in assay [1] and 56 nM in assay [2].

As for `CCCCOC(=O)NS(=O)(=O)c1sc(CC(C)C)cc1-c1cccc(Cn2ccnc2-c2ccsc2)c1`, the Ki in assay [1] is more than 10000 nM; in assay [2], 33 nM.
